From US20100137146A1, “Method of Screening Antibacterial Drug Compounds” (Temasek Lifesciences Laboratory, priority 2006, published 2010)

Columns and labels:
GFP-MreB D165E = GFP-MreB D165E (Escherichia coli, UniProt P0A9X4, D165E); details: GFP-MreB D165E in wild type fission yeast
Text: (§1) The MreB ATPase mutants were generated by overlap PCR with the following mutagenic primers: MOH2516 and MOH2517 for E143A and MOH2512 and MOH2513 for D165E along with the above-mentioned end primers (MOH2413 and MOH2414). The GFP-MreB mutants were all cloned into pREP42. All plasmids and mutations were verified by sequencing.
(§2) In bacteria, mutations in the vicinity of the ATP binding pocket of MreB confer A22 resistance. […] Plasmids expressing GFP-MreB E143A (see Garner et al., Science 306:1021-1025, 2004) or D165E (see Kruse et al., EMBO J. 22:5283-5292, 2003) were introduced into wild type fission yeast cells. Cultures were grown in the absence of thiamine to induce the expression of GFP fusion proteins. […] See FIGS. 15A (E143A) and 15B (D165E).

GFP-MreB E143A = GFP-MreB E143A (Escherichia coli, UniProt P0A9X4, E143A); details: GFP-MreB E143A in wild type fission yeast
Text: as §1, §2

MreB = biological target: T1, MreB (Escherichia coli, UniProt P0A9X4); type: cell-based, E. coli
T1 construct: the protein is expressed as a fusion of the full-length bacterial protein with a reporter; expressed in transfected cells; host or cells: Schizosaccharomyces pombe (pREP42-gfp-mreB, nmt42 promoter)
Protocol: GFP-MreB and FtsZ-GFP were expressed in S. pombe by growing the transformed cultures in the absence of thiamine for 16-20 hours. In the case of fission-yeast temperature-sensitive mutants carrying the GFP-MreB plasmid, cultures were grown in the absence of thiamine for 25-30 hours at 24° C. to allow sufficient expression of the protein. However, prior to the formation of MreB-polymers, the cultures were shifted to restrictive temperatures for a period of 4 hours. The cells were subsequently fixed and stained for actin or tubulin.
The cells were-either fixed with formaldehyde 0.7%) or observed live under a fluorescence microscope. Inhibition of MreB polymerization was achieved by the addition of A22 at a final concentration of 50 μg/ml after 14-16 hours of growth in the absence of thiamine. Cultures were allowed to grow further for a period of 6-8 hours before washing of A22 for time-lapse microscopy. The cells were mounted onto agarose slides, and images were acquired at fixed time intervals. Immunofluorescence was carried out as described in Balasubramanian et al., Meth. Enzymol. 283:494-495, 1997.
Next, whether MreB polymerization in fission yeast was mechanistically related to its polymerization in bacteria was assessed. Studies in bacteria have shown that the small molecule A22 affects the polymerization and/or maintenance of MreB polymers. To test whether A22 prevents polymerization of MreB in fission yeast, cells were treated with A22 prior to the induction of MreB expression. Cells expressing GFP-MreB were treated with the MreB-inhibitor A22 (0 minute time point) at a concentration of 50 μg/ml. The drug then was washed out, and cells were imaged by time-lapse microscopy.
To this end, cells containing preformed MreB bundles were treated with A22.

F-actin = biological target: T2, F-actin (Schizosaccharomyces pombe, UniProt P10989); test: F-actin staining (rhodamine-conjugated phalloidin) in S. pombe cells expressing GFP-MreB; type: cell-based; details: LatA 20 μg/ml for 10 minutes
T2 construct: endogenous in cells; host or cells: Schizosaccharomyces pombe cells expressing GFP-MreB
Protocol: S. pombe cells expressing GFP-MreB were fixed with methanol and incubated with tubulin (1:100) antibodies. Mouse secondary antibodies conjugated to Alexa-594™ were used at 1:400 for visualizing tubulin. For actin staining, cultures were fixed with formaldehyde (3.7%) and permeablized by using 1% Triton-X 100 in PBS. Rhodamine-conjugated phalloidin was used to visualize S. pombe actin. Latrunculin A (LatA) was added at a final concentration of 20 μg/ml for 10 minutes, and methyl 1-(butylcarbanoyl)-2-benzimidazolecarbamate (MBC) was added at a 25 μg/ml for 20 minutes. For methods, see Karagiannis et al., Mol. Biol. Cell 16:358-371, 2005 and Sawin et al., J. Cell Sci. 117:689-700, 2004, the disclosures of which are hereby incorporated by reference. For time-lapse imaging, LatA and MBC were included simultaneously in the agarose pads. […] Pictures were obtained with a CCD camera (CoolSnapHQ™, Photometrics™). The images were acquired and processed with Meta-morph™.
Studies therefore were performed to determine whether MreB assembly and maintenance was dependent on F-actin and microtubules. Cells were grown in the absence of thiamine to allow expression GFP-MreB. Cultures were then treated with LatA (20 μg/ml) for 10 minutes or methyl 1-butylcarbamoyl-2-benzimidazolecarbamate MBC (25 μg/ml) for 20 minutes to disrupt F-actin and microtubule, respectively. […]

T1 sequence (P0A9X4 whole entry, the tested form may be a part): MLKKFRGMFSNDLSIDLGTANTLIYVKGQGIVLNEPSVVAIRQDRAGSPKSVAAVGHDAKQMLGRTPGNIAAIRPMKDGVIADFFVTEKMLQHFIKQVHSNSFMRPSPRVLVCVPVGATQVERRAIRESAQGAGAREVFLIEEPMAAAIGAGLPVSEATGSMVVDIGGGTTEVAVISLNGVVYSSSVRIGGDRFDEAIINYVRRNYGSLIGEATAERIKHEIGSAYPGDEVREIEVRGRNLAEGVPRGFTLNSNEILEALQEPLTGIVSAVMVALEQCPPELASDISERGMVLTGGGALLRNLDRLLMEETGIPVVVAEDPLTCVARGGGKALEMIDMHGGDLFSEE
Chain of GFP-MreB D165E (P0A9X4 whole entry D165E): as the sequence (P0A9X4 whole entry, the tested form may be a part) above, with D165E counted along it
Chain of GFP-MreB E143A (P0A9X4 whole entry E143A): as the sequence (P0A9X4 whole entry, the tested form may be a part) above, with E143A counted along it

SMILES | Structures assembled by MreB ATPase mutant, sensitivity to A22 (GFP-MreB D165E) | Structures assembled by MreB ATPase mutant, sensitivity to A22 (GFP-MreB E143A) | MreB polymerization in fission yeast (MreB; A22 50 μg/ml, S. pombe cells expressing GFP-MreB, 0 minute time point before washout) | Reversibility of the effect on MreB polymerization (MreB; after removal of A22 (50 μg/ml), MreB filaments re-established at 20 minutes) | Severing and/or disassembly of preformed MreB bundles (MreB; cells with prominent GFP-MreB bundles cultured 1 hour with A22) | Disruption of F-actin (F-actin) | Maintenance of MreB bundles (MreB; LatA 20 μg/ml for 10 minutes) | MreB nucleation and assembly after A22 washout (MreB; simultaneous presence of LatA (20 μg/ml) and MBC (25 μg/ml) in agarose pads) | Effect on average growth rate of MreB bundles (MreB; simultaneous presence of LatA and MBC, rate without them 0.46±0.03 μm/min (n=44))
N=C(N)SCc1ccc(Cl)c(Cl)c1 [A22] | assembled similar structures both in the presence and absence of A22 | assembled similar structures both in the presence and absence of A22 | did not exhibit MreB polymers | reversible | pre-existing bundles were unaffected |  |  |  | 
C/C1=C/C(=O)O[C@@H]2C[C@@H](CC[C@H](C)/C=C\C=C\CC1)O[C@@](O)([C@@H]1CSC(=O)N1)C2 [LatA, Latrunculin A] |  |  |  |  |  | completely disassembled | remained unperturbed | MreB nucleated and assembled into polymers | did not vary significantly
